How the values were obtained:
Cathepsin B = assay: Gene expression in cardiac tissue of Tempol-fed mice (chip-based microarray); type: in vivo
Procedure: (§1) To assess the effects of Tempol on gene expression, Tempol was administered to experimental mice at a dose of 5 mg/g of food from 14 months to 31 months after birth. Mice receiving the same food without the addition of Tempol were used as a negative control. At the age of 31 months, the experimental animals were sacrificed and the hearts were surgically removed. The expression of a broad spectrum of genes in the cardiac tissue was assessed using chip-based microarray technology. Such chips are well known in the art and are widely used to assess gene expression.

Elongation factor-1-δ = assay: as above; type: in vivo
Procedure: as §1

Meltrin-alpha (ADAM12) = assay: as above; type: in vivo
Procedure: as §1

[1] = tested on: Mitogen activated protein kinase kinase 5; assay: as above; type: in vivo
Procedure: as §1

[2] = tested on: Peroxisome Proliferator-Activated Receptor-δ; assay: as above; type: in vivo
Procedure: as §1

Brain protein I3 (BRI3) = assay: Gene expression in adipose tissue of Tempol-fed mice (Affymetrix MOE430A 2.0 array); type: in vivo
Procedure: (§2) In a further gene expression study, Tempol was administered to experimental mice at a dose of 5 g/kg of diet from 12 months through 15 months. Mice receiving the same diet without the addition of Tempol were used as a negative control. At the age of 15 months, the adipose tissue of the experimental animals was obtained. The expression of a broad spectrum of genes in the adipose tissue was assessed using chip-based microarray technology. Specifically, in this case an Affymetrix MOE430A 2.0 array, containing 12,960 genes, was employed. Such chips are well known in the art and are widely used to assess gene expression.

Cyclooxygenase 1 (COX-1) = assay: as above; type: in vivo
Procedure: as §2

[3] = tested on: Glutathione S-transferase M3 (GSTM3); assay: as above; type: in vivo
Procedure: as §2

[4] = tested on: Hypoxia-inducible factor, alpha subunit (HIF1A); assay: as above; type: in vivo
Procedure: as §2

Sirtuin 2 (SIRT2) = assay: as above; type: in vivo
Procedure: as §2

[5] = tested on: Superoxide dismutase 2 (SOD2); assay: as above; type: in vivo
Procedure: as §2

[6] = tested on: Uncoupling protein 2 (UCP2); assay: as above; type: in vivo
Procedure: as §2

[7] = tested on: p53-related apoptosis effector related to PMP-22 (PERP); assay: as above; type: in vivo
Procedure: as §2

[8] = tested on: cancer-related proteins in the cancerous tissue; assay: Example 1: protein levels in cancerous tissue of patient diagnosed with cancer after Tempol; type: in vivo, human; conditions: 70-kilogram patient diagnosed with cancer; 1500 mg per day for 180 days
Procedure: (§3) A 70-kilogram patient diagnosed with cancer is administered a dose of 1500 mg of Tempol per day for 180 days. This may be administered in a single dose, or may be administered as a number of smaller doses over a 24-hour period: for example, three 500-mg doses at eight-hour intervals. Following treatment, the protein levels of elongation factor-1 delta, ADAM12, cathepsin B, peroxisome proliferator-activated receptor-δ, hypoxia-inducible factor alpha subunit, superoxide dismutase 2, uncoupling protein 2, and cyclooxygenase 1 in the cancerous tissue are reduced, and the levels of mitogen-activated protein kinase kinase 5, glutathione S-transferase M3, PERP, sirtuin 2, and brain protein I3 are increased.

[9] = tested on: cancer-related proteins in the cancerous tissue; assay: Example 2: protein levels in patient with familial risk factors for cancer after Tempol; type: in vivo, human; conditions: 70-kilogram patient with familial risk factors, no symptoms; 1500 mg per day for 180 days
Description: as §3, with “This” for “A 70-kilogram patient diagnosed with cancer is administered a dose of 1500 mg of Tempol per day for 180 days. This”

[10] = 5 mg/g of food from 14 to 31 months, mouse tp51
[11] = 5 mg/g of food from 14 to 31 months, mouse tp52
[12] = 5 mg/g of food from 14 to 31 months, mouse tp53
[13] = Tempol-treated vs control mice, negative = downregulated
[14] = reduction in Tempol-treated animals
[15] = 5 g/kg of diet from 12 through 15 months
[16] = Tempol-treated vs control mice, negative = downregulated, P Value 0.004

SMILES: CC1(C)CC(O)CC(C)(C)N1[O] [Tempol, 4-hydroxy-2,2,6,6-tetramethylpiperidine-1-oxyl]
- Cathepsin B expression, TEMPOL-treated mice tp51 (Cathepsin B; [10]): −12
- Cathepsin B expression, TEMPOL-treated mice tp52 (Cathepsin B; [11]): 6
- Cathepsin B expression, TEMPOL-treated mice tp53 (Cathepsin B; [12]): 13
- Cathepsin B expression Fold change (Cathepsin B; [13]): −2.8 fold
- Cathepsin B expression reduced (fold) (Cathepsin B; [14]): 2.8 fold
- Elongation factor-1-δ expression, TEMPOL-treated mice tp51 (Elongation factor-1-δ; [10]): 12
- Elongation factor-1-δ expression, TEMPOL-treated mice tp52 (Elongation factor-1-δ; [11]): 115
- Elongation factor-1-δ expression, TEMPOL-treated mice tp53 (Elongation factor-1-δ; [12]): 185
- Elongation factor-1-δ expression Fold change (Elongation factor-1-δ; [13]): −5.9 fold
- Elongation factor-1-δ expression reduced (fold) (Elongation factor-1-δ; [14]): 5.9 fold
- ADAM12 expression, TEMPOL-treated mice tp51 (Meltrin-alpha (ADAM12); [10]): −16
- ADAM12 expression, TEMPOL-treated mice tp52 (Meltrin-alpha (ADAM12); [11]): −4
- ADAM12 expression, TEMPOL-treated mice tp53 (Meltrin-alpha (ADAM12); [12]): −14
- ADAM12 expression Fold change (Meltrin-alpha (ADAM12); [13]): −2.3 fold
- ADAM12 expression reduced (fold) (Meltrin-alpha (ADAM12); [14]): 2.3 fold
- MAPKK5 expression, TEMPOL-treated mice tp51 [1, 10]: 41
- MAPKK5 expression, TEMPOL-treated mice tp52 [1, 11]: 84
- MAPKK5 expression, TEMPOL-treated mice tp53 [1, 12]: 63
- MAPKK5 expression Fold change ([1]; Tempol-treated vs control mice, upregulated): 2.2 fold
- PPAR-δ expression, TEMPOL-treated mice tp51 [2, 10]: 1
- PPAR-δ expression, TEMPOL-treated mice tp52 [2, 11]: 19
- PPAR-δ expression, TEMPOL-treated mice tp53 [2, 12]: 28
- PPAR-δ expression Fold change [2, 13]: −2.3 fold
- PPAR-δ expression reduced (fold) [2, 14]: 2.3 fold
- BRI3 expression, Mean (Tempol-treated mice) (Brain protein I3 (BRI3); [15]): 1835
- BRI3 expression Fold change (Brain protein I3 (BRI3); Tempol-treated vs control mice, upregulated, P Value 0.003): 1.18 fold
- COX-1 expression, Mean (Tempol-treated mice) (Cyclooxygenase 1 (COX-1); [15]): 331
- COX-1 expression Fold change (Cyclooxygenase 1 (COX-1); Tempol-treated vs control mice, negative = downregulated, P Value 0.006): −1.18 fold
- COX-1 expression reduced (fold) (Cyclooxygenase 1 (COX-1); [14]): 1.18 fold
- GSTM3 expression, Mean (Tempol-treated mice) [3, 15]: 74
- GSTM3 expression Fold change ([3]; Tempol-treated vs control mice, upregulated, P Value 0.001): 7.52 fold
- HIF1A expression, Mean (Tempol-treated mice) [4, 15]: 2203
- HIF1A expression Fold change [4, 16]: −1.23 fold
- HIF1 alpha expression reduced (fold) [4, 14]: 1.23 fold
- SIRT2 expression, Mean (Tempol-treated mice) (Sirtuin 2 (SIRT2); [15]): 686
- SIRT2 expression Fold change (Sirtuin 2 (SIRT2); Tempol-treated vs control mice, upregulated, P Value 0.048): 1.16 fold
- SOD2 expression, Mean (Tempol-treated mice) [5, 15]: 4423
- SOD2 expression Fold change [5, 16]: −1.33 fold
- SOD2 expression reduced (fold) [5, 14]: 1.33 fold
- UCP2 expression, Mean (Tempol-treated mice) [6, 15]: 2140
- UCP2 expression Fold change ([6]; Tempol-treated vs control mice, negative = downregulated, P Value 0.012): −1.61 fold
- UCP2 expression reduced (fold) [6, 14]: 1.61 fold
- PERP expression, Mean (Tempol-treated mice) [7, 15]: 82
- PERP expression Fold change ([7]; Tempol-treated vs control mice, upregulated, P Value 0.049): 1.66 fold
- levels of MAPKK5, GSTM3, PERP, sirtuin 2 and brain protein I3 [8]: increased
- protein levels of elongation factor-1 delta, ADAM12, cathepsin B, PPAR-δ, HIF alpha subunit, SOD2, UCP2 and COX-1 in the cancerous tissue [8]: reduced
- levels of MAPKK5, GSTM3, PERP, sirtuin 2 and brain protein I3 [9]: increased
- protein levels of elongation factor-1 delta, ADAM12, cathepsin B, PPAR-δ, HIF alpha subunit, SOD2, UCP2 and COX-1 in the cancerous tissue [9]: reduced

From patent US20120046314A1, “[…] USE IN TREATING OR […]” (MITOS, INC., priority 2005, published 2012)
